Reference: patent US6410340B1, “Use of an 8.4 kDa protein as an immunophilin reagent in protein binding assays for immunosuppressive drugs” (Children's Research Institute, priority 2000, dated 2002)

Key:
52 kDa immunophilin = details: Davis et al. 2000; cited from earlier work
5-8 kDa immunophilin = details: cited from earlier work
8.4 kDa immunophilin [1] = biological target: T1, 8.4 kDa immunophilin (Bos taurus, UniProt P62992); assay: Saturation analysis of tritiated FK-506 binding to calf thymus 8.4 kDa immunophilin (Scatchard, Hill plots); details: tritiated FK-506, calf thymus 8.4 kDa immunophilin, EBDA/LIGAND
T1 construct: from tissue; host or cells: calf thymus
T1 sequence (P62992 1-74 limits assumed): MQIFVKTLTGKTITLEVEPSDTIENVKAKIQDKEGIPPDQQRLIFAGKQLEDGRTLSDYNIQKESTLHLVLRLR
Text: Analytical data on purified immunophilins may be obtained conventionally. Association constants, specific binding activities, and numbers and types of binding sites can be obtained from Scatchard and Hill plots, using EBDA and LIGAND software. Isoelectric points (“pI”) can be obtained by isofocussing techniques. To obtain amino acid composition data, samples can be hydrolyzed by HCl gas in the presence of internal standards (e.g., norvaline and sarcosine), the products derivatized with a fluorescent reagent, and the derivatized amino acids separated on a Hewlett-Packard AMINO QUANT Analyzer. […]
An immunophilin protein binding assay (“IBA”) carried out in accordance with this invention can be performed by solution phase or solid phase methods. […] Following attainment of equilibrium, the amount of labeled drug bound to the immunophilin is determined. The amount of labeled drug bound will be reduced in proportion to the amount of analyte in a biological sample being analyzed. The quantitative relationship between the reduction of immunophilin-bound labeled drug and the concentration of the analyte in the unknown sample is determined by reference to a standard calibration curve. […] The amount of labeled drug bound to an immunophilin need not be determined directly; it may be determined by subtracting from the total amount of label added […] in the solution at equilibrium. […]

[2] = cited from earlier work; for fraction in the blood in the form of the parent compound: patients; for metabolites as share of all drug species in blood: rapamycin: trough blood samples
8.4 kDa immunophilin [3] = biological target: T1, 8.4 kDa immunophilin; assay: Displacement of tritiated FK-506 from the 8.4 kDa immunophilin by RAP; type: binding, calf; details: displacement of tritiated FK-506 by RAP; read-out: calculated Kd
Text: An immunophilin protein binding assay (“IBA”) carried out in accordance with this invention can be performed by solution phase or solid phase methods. The basic principle underlying each method is the same, and is described in, e.g., Davis et al., Clin. Biochem. 33:1(2000) and the Soldin patents listed above. Briefly, in a competitive IBA, a competition equilibrium is set up between a tracer amount of labeled drug and the corresponding drug in unknown samples containing the drug or biologically-active metabolites for binding to specific binding sites on an immunophilin. Following attainment of equilibrium, the amount of labeled drug bound to the immunophilin is determined. The amount of labeled drug bound will be reduced in proportion to the amount of analyte in a biological sample being analyzed. The quantitative relationship between the reduction of immunophilin-bound labeled drug and the concentration of the analyte in the unknown sample is determined by reference to a standard calibration curve. […] The amount of labeled drug bound to an immunophilin need not be determined directly; it may be determined by subtracting from the total amount of label added […] in the solution at equilibrium. […]

8.4 kDa immunophilin [4] = biological target: T1, 8.4 kDa immunophilin; assay: Binding of [mebmt-beta-3H]-CsA to the 8.4 kDa immunophilin; set-up: species or system calf; details: too low to measure; dissociation constant could not be determined
Text: A dissociation constant for [mebmt-beta-3H]-CsA with the 8.4 kDa immunophilin could not be determined, as the binding of this drug to the protein was too low to measure (0.13%).

7-0-demethyl sirolimus
binding to 52 kDa immunophilin (52 kDa immunophilin): substantially binds
binding to 5-8 kDa immunophilin (5-8 kDa immunophilin): substantially binds

32,41-0-demethyl sirolimus
binding to 52 kDa immunophilin (52 kDa immunophilin): substantially binds
binding to 5-8 kDa immunophilin (5-8 kDa immunophilin): substantially binds

41-0-demethyl sirolimus
binding to 52 kDa immunophilin (52 kDa immunophilin): substantially binds
binding to 5-8 kDa immunophilin (5-8 kDa immunophilin): substantially binds

C=CC[C@@H]1/C=C(\C)C[C@H](C)C[C@H](OC)[C@H]2O[C@@](O)(C(=O)C(=O)N3CCCC[C@H]3C(=O)O[C@H](/C(C)=C/[C@@H]3CC[C@@H](O)[C@H](OC)C3)[C@H](C)[C@@H](O)CC1=O)[C@H](C)C[C@@H]2OC [FK-506]
Kd (8.4 kDa immunophilin [1]): 0.8 nM
fraction in the blood in the form of the parent compound [2]: ¾
metabolites as share of all drug species in blood [2]: about 30%

CO[C@H]1C[C@@H]2CC[C@@H](C)[C@@](O)(O2)C(=O)C(=O)N2CCCC[C@H]2C(=O)O[C@H]([C@H](C)C[C@@H]2CC[C@@H](O)[C@H](OC)C2)CC(=O)[C@H](C)/C=C(\C)[C@@H](O)[C@@H](OC)C(=O)[C@H](C)C[C@H](C)/C=C/C=C/C=C/1C [RAP, rapamycin]
Kd (8.4 kDa immunophilin [3]): 0.08 nM
fraction in the blood in the form of the parent compound [2]: ½
metabolites as share of all drug species in blood [2]: at least 50%

(C1-C8 or C32-C36) OH sirolimus
binding to 52 kDa immunophilin (52 kDa immunophilin): substantially binds
binding to 5-8 kDa immunophilin (5-8 kDa immunophilin): substantially binds

(C9-C23)-OH-sirolimus
binding to 52 kDa immunophilin (52 kDa immunophilin): all but the fourth metabolite substantially binds
binding to 5-8 kDa immunophilin (5-8 kDa immunophilin): all but the fourth metabolite substantially binds

cyclosporin A [CsA]
binding of the drug to the protein (8.4 kDa immunophilin [4]): 0.13%
